# Measured values reported in paper PMC12216759 (Nature Communications, 2025).
# Key:
# Type in all cases: biochemical
# SHV-5 M69I [1] = target: T1, SHV-5 M69I (Enterobacter cloacae, UniProt Q6QNE1, M65I); assay: hydrolysis kinetics of purified enzyme
# SHV-5 [2] = target: T2, SHV-5 (Enterobacter cloacae, UniProt Q6QNE1); assay: steady-state hydrolysis kinetics of purified enzyme
# SHV-5 [3] = target: T2, SHV-5; assay: as above; remark: listed apart in the source
# SHV-5 M69I [4] = target: T1, SHV-5 M69I; assay: as above
# SHV-5 [5] = target: T2, SHV-5; assay: as above; remark: listed apart in the source
# SHV-5 M69I [6] = target: T1, SHV-5 M69I; assay: as above; remark: listed apart in the source
structure (smiles),measurement,setting,value
CC(C)(O/N=C(\C(=O)N[C@@H]1C(=O)N2C(C(=O)[O-])=C(C[N+]3(CCNC(=O)c4ccc(O)c(O)c4Cl)CCCC3)CS[C@H]12)c1csc(N)n1)C(=O)O [cefiderocol],"hydrolysis kinetics of purified enzyme (UV, 259 nm); KM too high to determine",SHV-5 M69I [1],1.2 × 10^3 M^−1s^−1 (kcat/KM)
same,"steady-state hydrolysis kinetics of purified enzyme (UV, 259 nm)",SHV-5 [2],9 × 10^3 M^−1s^−1 (kcat/KM)
CO/N=C(\C(=O)N[C@@H]1C(=O)N2C(C(=O)O)=C(COC(C)=O)CS[C@H]12)c1csc(N)n1 [cefotaxime],"steady-state hydrolysis kinetics of purified enzyme (UV, 264 nm)",SHV-5 [3],8 × 10^5 M^−1s^−1 (kcat/KM)
same,"steady-state hydrolysis kinetics of purified enzyme (UV, 264 nm)",SHV-5 M69I [4],2.3 × 10^4 M^−1s^−1 (kcat/KM)
CC(=O)OCC1=C(C(=O)O)N2C(=O)[C@@H](NC(=O)Cc3cccs3)[C@H]2SC1 [cephalothin],"steady-state hydrolysis kinetics of purified enzyme (UV, 262 nm)",SHV-5 [5],1 ×10^6 M^−1s^−1 (kcat/KM)
same,"steady-state hydrolysis kinetics of purified enzyme (UV, 262 nm)",SHV-5 M69I [6],8 × 10^4 M^−1s^−1 (kcat/KM)
